Several values for one entry are separate records, joined by “and”; a condition that tells them apart may be missing. Identical values can stand only once.
Test: Rat PK study #3 (ABBV-744 IV 1 mg/kg and PO 5 mg/kg)
Type: in vivo, SD rats
Parameters: Tmax: unit: h
Conditions: for concentration at 0.033 h: male, Sprague-Dawley, rat, plasma, iv
Protocol: For the third rat pharmacokinetic study, the pharmacokinetics of ABBV-744 were assessed in male SD rats for comparison to Compound A. ABBV-744 was prepared in a formulation of 5% DMSO, 40% PEG-400, and 55% Milli-Q water (see Table 2D for formulation) and delivered to animals orally (PO) at a dose of 5 mg/kg, or intravenously (IV) at a dose of 1 mg/kg. Animals in each group (n=3) were then monitored over a 24-hour period.
Blood samples (~0.2 mL) were collected according to a schedule (IV administration: 0.033, 0.083, 0.25, 0.5, 1, 2, 4, and 8 h following the initial dosing; PO administration: 0.083, 0.25, 0.5, 1, 2, 4, 8, and 24 h following the initial dosing) by jugular vein by cannulation except for the dosing vein (for IV group), and EDTA-K2 was used as anticoagulant. Within 30 minutes of collection, the samples were centrifuged at approximately 4000 times g-force for 5 minutes at 4° C. to obtain blood plasma. The plasma samples were immediately divided into two aliquots (~75 µL each), transferred to a cryogenic vial, and stored in a freezer at −75±15° C. prior to analysis.
The concentration of ABBV-744 in plasma samples was determined by liquid chromatography-mass spectrometry (LC-MS/MS) using a Shimadzu HPLC(DGU-405; LC-40D XS CN; SIL-40C XSCN; Plate Changer CN; CTO-40C CN; and CBM-40 CN) and an AB API 5500+LC/MS/MS instrument. Samples were analyzed on an Agilent Poroshell Bonus RP 2.7 μm (50×2.1 mm) column. Solution A in the mobile phase was 95% water (0.1% formic acid) and solution B was 95% acetonitrile in water (0.1% formic acid), injection volume was 6 μL, and flow rate was 0.6 mL/min.
To prepare samples for analysis, serial concentrations were prepared by diluting the stock solution of analyte with a 50% acetonitrile in water solution. 5 μL working solutions (5, 10, 20, 50, 100, 500, 1000, 5000, and 10000 ng/mL) were added to 50 μL of the blank SD rat plasma to achieve calibration standards of ~0.5 to 1000 ng/ml (0.5, 1, 2, 5, 10, 50, 100, 500, and 1000 ng/ml) in a total volume of 55 μL. Five quality control samples at 1 ng/ml, 2 ng/ml, 5 ng/ml, 50 ng/mL, and 800 ng/ml for plasma were prepared independently of those used for the calibration curves. These QC samples were prepared on the day of analysis in the same way as calibration standards.
55 μL of standards, 55 μL of QC samples and 55 μL of unknown samples (50 μL of unknown rat plasma with 5 µL of blank solution) were added to 200 µL of acetonitrile containing IS mixture (verapamil) for precipitating protein respectively. The samples were then vortexed for 30 s. After centrifugation at 4° C., 3900 rpm for 15 min, the supernatant was diluted 3 times with water. 6 μL of diluted supernatant was injected into the LC/MS/MS system for quantitative analysis.

[1] = SD rats, IV 1 mg/kg, DMSO/PEG-400/Milli-Q water formulation, individual animals, 1 mg/kg
[2] = SD rats, IV 1 mg/kg, DMSO/PEG-400/Milli-Q water formulation, mean of 3 animals
[3] = SD rats, PO 5 mg/kg, DMSO/PEG-400/Milli-Q water formulation, individual animals, 5 mg/kg

exposure above the free EC50 BD2 BRD4 (5 mg/kg dose): minimal | Clinical observations (IV 1 mg/kg and PO 5 mg/kg): No clinical observations were noted | Plasma Concentration (SD rats, IV 1 mg/kg, DMSO/PEG-400/Milli-Q water formulation, 0.033 h, individual animals, 1 mg/kg): 484 ng/mL and 489 ng/mL | Plasma Concentration (SD rats, IV 1 mg/kg, DMSO/PEG-400/Milli-Q water formulation, 0.083 h, individual animals, 1 mg/kg): 308 ng/mL and 353 ng/mL | Plasma Concentration (SD rats, IV 1 mg/kg, DMSO/PEG-400/Milli-Q water formulation, 0.25 h, individual animals, 1 mg/kg): 267 ng/mL and 289 ng/mL | Plasma Concentration (SD rats, IV 1 mg/kg, DMSO/PEG-400/Milli-Q water formulation, 0.5 h, individual animals, 1 mg/kg): 217 ng/mL and 202 ng/mL | Plasma Concentration (SD rats, IV 1 mg/kg, DMSO/PEG-400/Milli-Q water formulation, 1 h, individual animals, 1 mg/kg): 147 ng/mL and 158 ng/mL | Plasma Concentration (SD rats, IV 1 mg/kg, DMSO/PEG-400/Milli-Q water formulation, 2 h, individual animals, 1 mg/kg): 116 ng/mL and 110 ng/mL | Plasma Concentration (SD rats, IV 1 mg/kg, DMSO/PEG-400/Milli-Q water formulation, 4 h, individual animals, 1 mg/kg): 55.9 ng/mL and 54.8 ng/mL | Plasma Concentration (SD rats, IV 1 mg/kg, DMSO/PEG-400/Milli-Q water formulation, 8 h, individual animals, 1 mg/kg): 18.3 ng/mL and 15.0 ng/mL | AUCInf [1]: 750 ng·h/mL and 728 ng·h/mL | AUC_%Extrap_obs [1]: 5.41% and 8.03% and 6.23% | AUClast [1]: 690 ng·h/mL and 683 ng·h/mL | C0 [1]: 652 ng/mL and 606 ng/mL | MRTInf_obs [1]: 2.88 h and 2.61 h | T1/2 [1]: 2.28 h and 2.09 h | Vss_obs [1]: 3.69 L/kg and 3.84 L/kg and 3.59 L/kg | AUC_%Extrap_obs [2]: 6.56% | Cl_obs [2]: 23.3 mL/min/kg | Vss_obs [2]: 3.71 L/kg | Plasma Concentration (SD rats, PO 5 mg/kg, DMSO/PEG-400/Milli-Q water formulation, 0.083 h, individual animals, 5 mg/kg): 0.00 ng/mL and 1.03 ng/mL and 3.81 ng/mL | Plasma Concentration (SD rats, PO 5 mg/kg, DMSO/PEG-400/Milli-Q water formulation, 0.25 h, individual animals, 5 mg/kg): 2.95 ng/mL and 6.42 ng/mL and 48.5 ng/mL | Plasma Concentration (SD rats, PO 5 mg/kg, DMSO/PEG-400/Milli-Q water formulation, 0.5 h, individual animals, 5 mg/kg): 7.91 ng/mL and 21.1 ng/mL and 100 ng/mL | Plasma Concentration (SD rats, PO 5 mg/kg, DMSO/PEG-400/Milli-Q water formulation, 1 h, individual animals, 5 mg/kg): 16.7 ng/mL and 41.0 ng/mL and 118 ng/mL | Plasma Concentration (SD rats, PO 5 mg/kg, DMSO/PEG-400/Milli-Q water formulation, 2 h, individual animals, 5 mg/kg): 31.9 ng/mL and 78.0 ng/mL and 157 ng/mL | Plasma Concentration (SD rats, PO 5 mg/kg, DMSO/PEG-400/Milli-Q water formulation, 4 h, individual animals, 5 mg/kg): 40.6 ng/mL and 101 ng/mL and 239 ng/mL | Plasma Concentration (SD rats, PO 5 mg/kg, DMSO/PEG-400/Milli-Q water formulation, 8 h, individual animals, 5 mg/kg): 54.6 ng/mL and 70.6 ng/mL and 214 ng/mL | Cmax [3]: 54.6 ng/mL and 101 ng/mL and 239 ng/mL | F [3]: 22.1% and 35.2% and 97.7% | Tmax [3]: 4.00 h | F (SD rats, PO 5 mg/kg, DMSO/PEG-400/Milli-Q water formulation, mean of 3 animals): 51.7% | concentration at 0.033 h (1 mg/kg, SD rats, IV 1 mg/kg, DMSO/PEG-400/Milli-Q water formulation, 0.033 h, individual animals): 475 ng/mL | concentration at 0.033 h (1 mg/kg, SD rats, IV 1 mg/kg, DMSO/PEG-400/Milli-Q water formulation, 0.033 h, mean of 3 animals): 483 ng/mL
SMILES: CCNC(=O)c1cc2c(-c3cc(C(C)(C)O)ccc3Oc3c(C)cc(F)cc3C)cn(C)c(=O)c2[nH]1 [ABBV-744]
Cl_obs [1]: 24.9 mL/min/kg and 22.2 mL/min/kg and 22.9 mL/min/kg | Plasma Concentration (SD rats, PO 5 mg/kg, DMSO/PEG-400/Milli-Q water formulation, 24 h, individual animals, 5 mg/kg): 0.909 ng/mL and 1.09 ng/mL and 4.52 ng/mL | AUClast [3]: 739 ng·h/mL and 1175 ng·h/mL and 3265 ng·h/mL

— patent publication US20260217701A1, “SELECTIVE BET INHIBITORS AND USES THEREOF” (Tay Therapeutics Limited, priority 2022, published 2026)
